# Key:
# furin = molecular target: T1, furin (Homo sapiens, UniProt P09958); assay: Stability toward furin digestion; type: in vitro ADME; settings: 40 μM peptide, phosphate buffer pH 7.0, 10 units furin, 16 hours, 30° C.; HPLC; FIG. 7A
# T1 construct: purchased Sigma
# Description: To test this, a quick experiment was performed on the resistance of the synthetic V3 glycopeptides against different proteases. The protease furin was reported to be able to cleave the V3 domain of gp120 at the sequence 302-312 [134-136]. Therefore, the stability of the synthetic glycopeptides toward furin digestion was initially examined. The enzyme was obtained from Sigma and the digestion was monitored by HPLC and ESI-MS analysis.
# (§1) FIG. 7A is a graph for digestion with furin, under reaction conditions involving a solution of each peptide (40 μM) in a phosphate buffer (pH 7.0, total 30 μl) incubated with 10 units of furin (Sigma; a unit being defined by the amount of furin that hydrolyzes one pmol substrate in 1 minute under the optimal condition) for 16 hours at 30° C., and the remaining starting peptide was quantified by HPLC and confirmed by ESI-MS determination. FIG. 7B is a graph for digestion with pronase under reaction conditions involving a solution of each peptide (40 μM) in a phosphate buffer (pH 7.4, total 100 μl) incubated with 125 ng of pronase (Sigma) for 40 minutes at 30° C., and the remaining starting peptide was quantified by HPLC and confirmed by ESI-MS determination.
# (§2) Next, the stability of the V3 glycopeptides against pronase digestion was tested. The pronase (Actinase E, Sigma) is a mixture of at least three proteolytic activities.
# pronase (Actinase E) = assay: Stability toward pronase digestion; type: in vitro ADME; settings: 40 μM peptide, phosphate buffer pH 7.4, 125 ng pronase, 40 minutes, 30° C.; HPLC; FIG. 7B
# Description: as §1, §2
# T1 sequence (P09958 108-794, species assumed): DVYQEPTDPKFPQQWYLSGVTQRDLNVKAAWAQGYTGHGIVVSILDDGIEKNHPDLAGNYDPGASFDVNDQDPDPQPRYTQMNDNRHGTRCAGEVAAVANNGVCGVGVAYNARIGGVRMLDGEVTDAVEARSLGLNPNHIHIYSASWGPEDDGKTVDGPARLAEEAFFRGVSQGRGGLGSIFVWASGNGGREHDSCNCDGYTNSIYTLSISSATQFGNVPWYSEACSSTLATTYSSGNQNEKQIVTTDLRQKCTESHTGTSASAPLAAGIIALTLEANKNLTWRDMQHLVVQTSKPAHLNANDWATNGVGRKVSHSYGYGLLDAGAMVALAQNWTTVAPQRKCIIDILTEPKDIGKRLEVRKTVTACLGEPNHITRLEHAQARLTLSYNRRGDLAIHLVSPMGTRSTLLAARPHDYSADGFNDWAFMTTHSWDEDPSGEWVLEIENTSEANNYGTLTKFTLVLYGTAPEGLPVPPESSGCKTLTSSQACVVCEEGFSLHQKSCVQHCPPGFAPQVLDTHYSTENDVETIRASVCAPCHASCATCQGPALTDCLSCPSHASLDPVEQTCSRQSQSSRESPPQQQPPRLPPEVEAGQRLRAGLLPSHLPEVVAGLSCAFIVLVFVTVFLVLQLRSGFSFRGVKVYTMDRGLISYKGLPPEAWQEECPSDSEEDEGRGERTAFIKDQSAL
structure (smiles),measurement,setting,value
CC[C@H](C)[C@@H]1NC(=O)[C@H](CCCCN)NC(=O)CNC(=O)[C@H]([C@@H](C)CC)NC(=O)[C@H]([C@@H](C)O)NC(=O)[C@H](C(C)C)NC(=O)[C@H](Cc2ccccc2)NC(=O)[C@H](C)NC(=O)[C@H](CCCNC(=N)N)NC(=O)CNC(=O)[C@@H]2CCCN2C(=O)CNC(=O)[C@H](CCCNC(=N)N)NC(=O)[C@H](CCC(N)=O)NC(=O)[C@H]([C@@H](C)CC)NC(=O)[C@H](CCCNC(=N)N)NC(=O)[C@H]([C@@H](C)CC)NC(=O)[C@H](CCCNC(=N)N)NC(=O)[C@H](CCCCN)NC(=O)[C@H](CCCNC(=N)N)NC(=O)[C@H]([C@@H](C)O)NC(=O)[C@H](CC(N)=O)NC(=O)[C@H](CC(N)=O)NC(=O)[C@H](CC(N)=O)NC(=O)[C@@H]2CCCN2C(=O)[C@H](CCCNC(=N)N)NC(=O)[C@H]([C@@H](C)O)NC(=O)[C@@H](NC(=O)[C@H](CC(=O)N[C@@H]2O[C@H](CO)[C@@H](O[C@@H]3O[C@H](CO)[C@@H](O[C@@H]4O[C@H](CO[C@H]5O[C@H](CO)[C@@H](O)[C@H](O)[C@@H]5O)[C@@H](O)[C@H](O[C@H]5O[C@H](CO)[C@@H](O)[C@H](O)[C@@H]5O)[C@@H]4O)[C@H](O)[C@H]3NC(C)=O)[C@H](O)[C@H]2NC(C)=O)NC(=O)[C@@H](NC(=O)[C@H](CCC(=O)O)NC(=O)[C@@H](NC(=O)[C@H](CO)NC(=O)[C@@H](N)[C@@H](C)O)C(C)C)[C@@H](C)CC)CSSC[C@@H](C(=O)N[C@@H](CC(=O)N[C@@H]2O[C@H](CO)[C@@H](O[C@@H]3O[C@H](CO)[C@@H](O[C@@H]4O[C@H](CO[C@H]5O[C@H](CO)[C@@H](O)[C@H](O)[C@@H]5O)[C@@H](O)[C@H](O[C@H]5O[C@H](CO)[C@@H](O)[C@H](O)[C@@H]5O)[C@@H]4O)[C@H](O)[C@H]3NC(C)=O)[C@H](O)[C@H]2NC(C)=O)C(=O)N[C@H](C(=O)N[C@@H](CO)C(=O)N[C@@H](CCCNC(=N)N)C(=O)N[C@@H](C)C(N)=O)[C@@H](C)CC)NC(=O)[C@H](Cc2c[nH]cn2)NC(=O)[C@H](C)NC(=O)[C@H](CCC(N)=O)NC(=O)[C@H](CCCNC(=N)N)NC(=O)[C@H](CCSC)NC(=O)[C@H](CC(N)=O)NC(=O)CNC1=O [HB-V3-(G2M3)2],stability toward furin digestion (remaining starting peptide),furin,most stable
same,stability toward pronase digestion (remaining starting peptide),pronase (Actinase E),most stable

# From US7728106B2, “HIV-1 glycopeptides and derivatives; preparation and applications thereof” (University of Maryland Biotechnology Institute, priority 2005, dated 2010)
